In patent US11607458B2 (Georgia State University Research Foundation, Inc, priority 2017, dated 2023):

Experiment: HPLC studies of reaction kinetics of tetrazine prodrugs with cyclooctyne alkynes (Kobs, second-order rate constant k2)
Format: physicochemical
Settings: for Kobs: prodrug 25 μM
Protocol: Stock solution preparation. Each of the tetrazine prodrugs (compounds 1b, 1c, and 1d) was dissolved in DMSO to afford a 500-μM stock solution. Each of the alkynes (compounds 2a, 2b, 2c, and 2d) was dissolved in DMSO to afford a 50-mM stock solution. Doxorubicin (Dox) and dansylamino compound (DA) 1.1b were each dissolved in DMSO to afford 1-mM stock solutions.
(§1) HPLC method A.: mobile phase A (10 mM NaH2PO4 in water, pH=5.0) and mobile phase B (ACN), flow rate: 1 mL/min, running time: 30 min, the gradient elution method: 25% B from 0 to 6 min, 25% to 50% B from 6 to 8 min, 50% B from 8 to 15 min, 50% to 99% B from 15 to 20 min, 99% B from 20 to 25 min, 99% to 25% B from 25 to 30 min. Detection wavelength: 256 nm. Column: Waters C18 3.5 μM, 4.6×100 mm. Injection volume: 20 μL.
as §1, with “method B:” for “method A.:”, “method: 30%” for “method: 25%”, “min, 30%” for “min, 25%”, “25 min.” for “25 min,”, “to 30%” for “to 25%”, “Detection wavelength 1: 256, detection wavelength 2: 337” for “Detection wavelength: 256”
General procedures HPLC studies of reaction kinetics. To three 20-ml vials with 9 mL PBS were added a solution of tetrazine prodrug (500 μL, 500 μM). 350 μL, 300 μL and 250 μL DMSO were added to vial respectively, and then 150 μL, 200 μL and 250 μL of the alkyne solution (50 mM in DMSO) were added to the vials to afford final concentrations of alkyne 0.75 mM, 1 mM and 1.25 mM in PBS (10% DMSO, 25 μM prodrug) respectively. The reaction was stirred at r.t or 37° C. respectively. Every 30 min about 500 μL reaction mixtures were taken out and 20 μL of them were injected into the HPLC by the autosampler; the rest of them were poured back to the reaction mixture. (Note: In the cases of prodrugs 1d or 1b reacting with alkyne 2d at 37° C., the final concentrations of 2d in the kinetic studies were 250 μM, 300 μM and 350 μM).
Determination of second-order rate constants. The reaction rate constant, kobs, was calculated for each concentration of the alkyne by fitting the prodrug areas versus time using eq. 1: Y=A exp(−kobst) eq. 1 where Y is the prodrug area, and t is time. The pseudo-first-order rate constant, kobs, was then plotted against the concentration of alkyne to yield the second-order rate constant using eq 2: kobs=k2[Alkyne] eq. 2 where k2 is the second-order rate constant.

Compound: COc1cccc2c1C(=O)c1c(O)c3c(c(O)c1C2=O)CC(O)(C(=O)CO)CC3OC1CC(NC(=O)c2nnc(-c3ccc(OCc4cn(CCCCCCCCC[P+](c5ccccc5)(c5ccccc5)c5ccccc5)nn4)cc3)nn2)C(O)C(C)O1 (centres unmarked) [1c]
- Kobs (37° C., alkyne 2b 0.75 mM, Expt. 1): 0.711 h⁻¹
- Kobs (37° C., alkyne 2b 0.75 mM, Expt. 2): 0.701 h⁻¹
- Kobs (37° C., alkyne 2b 0.75 mM, Expt. 3): 0.714 h⁻¹
- Kobs (37° C., alkyne 2b 1.00 mM, Expt. 1): 0.921 h⁻¹
- Kobs (37° C., alkyne 2b 1.00 mM, Expt. 2): 0.902 h⁻¹
- Kobs (37° C., alkyne 2b 1.00 mM, Expt. 3): 0.871 h⁻¹
- Kobs (37° C., alkyne 2b 1.25 mM, Expt. 1): 1.21 h⁻¹
- Kobs (37° C., alkyne 2b 1.25 mM, Expt. 2): 1.15 h⁻¹
- Kobs (37° C., alkyne 2b 1.25 mM, Expt. 3): 1.09 h⁻¹
- k2 at 37° C. (second order rate constant) (alkyne 2b, 37° C., PBS containing 10% DMSO, n = 3): 0.25 ± 0.05 M⁻¹ s⁻¹
- k2 at r.t (second order rate constant) (alkyne 2b, r.t, PBS containing 10% DMSO, n = 3): 0.091 ± 0.013 M⁻¹ s⁻¹
- Kobs (r.t, alkyne 2b 0.75 mM, Expt. 1): 0.296 h⁻¹
- Kobs (r.t, alkyne 2b 0.75 mM, Expt. 2): 0.305 h⁻¹
- Kobs (r.t, alkyne 2b 0.75 mM, Expt. 3): 0.291 h⁻¹
- Kobs (r.t, alkyne 2b 1.00 mM, Expt. 1): 0.331 h⁻¹
- Kobs (r.t, alkyne 2b 1.00 mM, Expt. 2): 0.356 h⁻¹
- Kobs (r.t, alkyne 2b 1.00 mM, Expt. 3): 0.359 h⁻¹
- Kobs (r.t, alkyne 2b 1.25 mM, Expt. 1): 0.445 h⁻¹
- Kobs (r.t, alkyne 2b 1.25 mM, Expt. 2): 0.465 h⁻¹
- Kobs (r.t, alkyne 2b 1.25 mM, Expt. 3): 0.474 h⁻¹
